Test: MALDI-TOF screening of Ni^2+ dependent hydrolysis in a combinatorial peptide library
Assay type: physicochemical
Settings: Ni^2+ 2 mM, pH 8.2, 10 mM Tris, score=24/tm
Text: The sequence CH3CO-Gly-Ala-Ser/Thr-X-His-Z-Lys-Phe-Leu-NH2 was designed so that the fixed R1 and R2 sequences, CH3CO-Gly-Ala, and Lys-Phe-Leu-NH2, respectively, allowed optimal detection by MALDI-TOF mass spectrometry of substrates as well as expected products, Ser/Thr-X-His-Z-Lys-Phe-Leu-NH2 and assured separation between the clusters of signals for substrates and products in sublibraries (see below).
Residues in position X included all amino acids commonly present in proteins, except for Asp, Glu, and Cys. The former two contain carboxylates in their side chains, which may bind Ni^2+ in a way which would quench or slow down the hydrolysis reaction. The Cys residue may do the same, and also may engage in side reactions with Ni^2+ ions, including redox processes (for example see Bal and Kasprzak, Toxicol. Lett. 2002, 127, 55-62). Only the Cys residue was eliminated from position Z, for the same reasons.
The synthesis of the library was accomplished on a RINK amide resin (Novabiochem) on a 800 mg scale, according to a typical Fmoc protocol (Fields, Meth. Enzymol. Vol. 289). The resin-attached Leu-Phe-Lys peptide was synthesised first and coupled with the isokinetic mixture of 19 amino acids selected for position Z, and then with the H is residue. The resin carrying the library of pentapeptides was divided into Ser and Thr halves at this stage, and each of these halves into 17 portions, which were coupled with individual amino acids selected for position X. The coupling with Ser or Thr as appropriate, additions of Ala and Gly residues, acetylation of Gly, deprotection and cleavage from the resin were accomplished subsequently. Each of the resulting 34 samples of sublibraries randomized at position X was separated into two portions, one for the reaction at 37° C. and another for the reaction at 45° C. The hydrolysis reactions were accomplished in 10 mM Tris buffers at pH 8.2. The total concentrations of peptide mixtures and Ni^2+ ions were 1 mM and 2 mM, respectively. The pH for the reaction was chosen as selective for highly reactive sequences.
The detection of reaction products was accomplished with the use of a MALDI-TOF mass spectrometer (Micromass). The aliquots were removed from reaction mixtures and measured by MS at 2, 4, 6, and 8 hours of incubation. The progress of reaction was evaluated by visual detection in mass spectra of appearance of signals corresponding to expected products of hydrolysis, Ser/Thr-X-His-Z-Lys-Phe-Leu-NH2, at given measurement times, tm. […] Also the decrease of signals of substrates was controlled in these cases.
Residues X and Z were then sorted according to various molecular parameters, describing their physical properties (Carugo, In Silico Biol. 2003, 3, 0035). […] The Ser library provided a higher number of reactive peptides than the Thr library. Following the additivity of effects, the scores were also summed up in lines and columns of Table 1A-D, thereby creating final rankings for preferred substitutions in positions X and Z.

[1] = CH3CO-Gly-Ala-Ser-X-His-Z-Lys-Phe-Leu-NH2 library, 37° C.
[2] = CH3CO-Gly-Ala-Ser-X-His-Z-Lys-Phe-Leu-NH2 library, 45° C.
[3] = CH3CO-Gly-Ala-Thr-X-His-Z-Lys-Phe-Leu-NH2 library, 37° C.
[4] = CH3CO-Gly-Ala-Thr-X-His-Z-Lys-Phe-Leu-NH2 library, 45° C.

Substance	hydrolysis score from MALDI-TOF screening [1]	hydrolysis score from MALDI-TOF screening [2]	hydrolysis score from MALDI-TOF screening [3]	hydrolysis score from MALDI-TOF screening [4]
Ac-GASIHWKFL-NH2 [SIHW]	3 (a score of 3 for detection at 8 hours)	3 (a score of 3 for detection at 8 hours)		
Ac-GATYHAKFL-NH2 [TYHA]			0 (a score of 0 if no trace of the product of hydrolysis was seen after 8 hours of incubation)	0 (a score of 0 if no trace of the product of hydrolysis was seen after 8 hours of incubation)
Ac-GATWHFKFL-NH2 [TWHF]			0 (a score of 0 if no trace of the product of hydrolysis was seen after 8 hours of incubation)	0 (a score of 0 if no trace of the product of hydrolysis was seen after 8 hours of incubation)
Ac-GASNHWKFL-NH2 [SNHW]	6 (a score of 6 for detection at 4 hours)	6 (a score of 6 for detection at 4 hours)		
Ac-GASWHLKFL-NH2 [SWHL]	6 (a score of 6 for detection at 4 hours)	12 (a score of 12, if it was seen to be partially hydrolysed at 2 hours)		
Ac-GASHHGKFL-NH2 [SHHG]	3 (a score of 3 for detection at 8 hours)	0 (a score of 0 if no trace of the product of hydrolysis was seen after 8 hours of incubation)		
Ac-GASTHHKFL-NH2 [STHH]	0 (a score of 0 if no trace of the product of hydrolysis was seen after 8 hours of incubation)	3 (a score of 3 for detection at 8 hours)		
Ac-GATYHKKFL-NH2 [TYHK]			3 (a score of 3 for detection at 8 hours)	4 (a score of 4 for detection at 6 hours)
Ac-GASVHFKFL-NH2 [SVHF]	0 (a score of 0 if no trace of the product of hydrolysis was seen after 8 hours of incubation)	3 (a score of 3 for detection at 8 hours)		
Ac-GASHHEKFL-NH2 [SHHE]	0 (a score of 0 if no trace of the product of hydrolysis was seen after 8 hours of incubation)	0 (a score of 0 if no trace of the product of hydrolysis was seen after 8 hours of incubation)		
Ac-GATYHRKFL-NH2 [TYHR]			4 (a score of 4 for detection at 6 hours)	4 (a score of 4 for detection at 6 hours)
Ac-GATAHKKFL-NH2 [TAHK]			0 (a score of 0 if no trace of the product of hydrolysis was seen after 8 hours of incubation)	0 (a score of 0 if no trace of the product of hydrolysis was seen after 8 hours of incubation)
Ac-GATWHGKFL-NH2 [TWHG]			0 (a score of 0 if no trace of the product of hydrolysis was seen after 8 hours of incubation)	0 (a score of 0 if no trace of the product of hydrolysis was seen after 8 hours of incubation)
Ac-GATVHMKFL-NH2 [TVHM]			0 (a score of 0 if no trace of the product of hydrolysis was seen after 8 hours of incubation)	0 (a score of 0 if no trace of the product of hydrolysis was seen after 8 hours of incubation)
Ac-GASFHDKFL-NH2 [SFHD]	0 (a score of 0 if no trace of the product of hydrolysis was seen after 8 hours of incubation)	0 (a score of 0 if no trace of the product of hydrolysis was seen after 8 hours of incubation)		
Ac-GASIHEKFL-NH2 [SIHE]	0 (a score of 0 if no trace of the product of hydrolysis was seen after 8 hours of incubation)	0 (a score of 0 if no trace of the product of hydrolysis was seen after 8 hours of incubation)		
Ac-GATHHSKFL-NH2 [THHS]			0 (a score of 0 if no trace of the product of hydrolysis was seen after 8 hours of incubation)	4 (a score of 4 for detection at 6 hours)

Substance	hydrolysis score from MALDI-TOF screening [1]	hydrolysis score from MALDI-TOF screening [2]	hydrolysis score from MALDI-TOF screening [3]	hydrolysis score from MALDI-TOF screening [4]
Ac-GASFHRKFL-NH2 [SFHR]	4 (a score of 4 for detection at 6 hours)	6 (a score of 6 for detection at 4 hours)		
Ac-GATVHPKFL-NH2 [TVHP]			0 (a score of 0 if no trace of the product of hydrolysis was seen after 8 hours of incubation)	0 (a score of 0 if no trace of the product of hydrolysis was seen after 8 hours of incubation)
Ac-GATIHPKFL-NH2 [TIHP]			0 (a score of 0 if no trace of the product of hydrolysis was seen after 8 hours of incubation)	0 (a score of 0 if no trace of the product of hydrolysis was seen after 8 hours of incubation)
Ac-GASLHAKFL-NH2 [SLHA]	0 (a score of 0 if no trace of the product of hydrolysis was seen after 8 hours of incubation)	0 (a score of 0 if no trace of the product of hydrolysis was seen after 8 hours of incubation)		
Ac-GATHHRKFL-NH2 [THHR]			6 (a score of 6 for detection at 4 hours)	6 (a score of 6 for detection at 4 hours)
Ac-GATWHLKFL-NH2 [TWHL]			0 (a score of 0 if no trace of the product of hydrolysis was seen after 8 hours of incubation)	3 (a score of 3 for detection at 8 hours)
Ac-GATYHSKFL-NH2 [TYHS]			0 (a score of 0 if no trace of the product of hydrolysis was seen after 8 hours of incubation)	0 (a score of 0 if no trace of the product of hydrolysis was seen after 8 hours of incubation)
Ac-GASPHYKFL-NH2 [SPHY]	0 (a score of 0 if no trace of the product of hydrolysis was seen after 8 hours of incubation)	0 (a score of 0 if no trace of the product of hydrolysis was seen after 8 hours of incubation)		
Ac-GATRHRKFL-NH2 [TRHR]			4 (a score of 4 for detection at 6 hours)	6 (a score of 6 for detection at 4 hours)
Ac-GASPHQKFL-NH2 [SPHQ]	0 (a score of 0 if no trace of the product of hydrolysis was seen after 8 hours of incubation)	0 (a score of 0 if no trace of the product of hydrolysis was seen after 8 hours of incubation)		
Ac-GASNHQKFL-NH2 [SNHQ]	0 (a score of 0 if no trace of the product of hydrolysis was seen after 8 hours of incubation)	0 (a score of 0 if no trace of the product of hydrolysis was seen after 8 hours of incubation)		
Ac-GATSHAKFL-NH2 [TSHA]			0 (a score of 0 if no trace of the product of hydrolysis was seen after 8 hours of incubation)	0 (a score of 0 if no trace of the product of hydrolysis was seen after 8 hours of incubation)
Ac-GASAHKKFL-NH2 [SAHK]	3 (a score of 3 for detection at 8 hours)	6 (a score of 6 for detection at 4 hours)		
Ac-GASHHYKFL-NH2 [SHHY]	3 (a score of 3 for detection at 8 hours)	4 (a score of 4 for detection at 6 hours)		
Ac-GASGHTKFL-NH2 [SGHT]	0 (a score of 0 if no trace of the product of hydrolysis was seen after 8 hours of incubation)	0 (a score of 0 if no trace of the product of hydrolysis was seen after 8 hours of incubation)		
Ac-GATGHIKFL-NH2 [TGHI]			0 (a score of 0 if no trace of the product of hydrolysis was seen after 8 hours of incubation)	0 (a score of 0 if no trace of the product of hydrolysis was seen after 8 hours of incubation)

— US8969516B2, “Method of hydrolysis of peptide bond” (priority 2006, dated 2015)
